Results published in patent US20250205194A1, “COMPOSITION CONTAINING L-ASCORBIC ACID DL-a-TOCOPHEROL PHOSPHORIC ACID DIESTER ALKALI METAL SALT” (SUNSTAR INC., priority 2022, published 2025).

What follows are compounds tested against T1, MMP-8 (neutrophil collagenase) (Homo sapiens, UniProt P22894) (assay: MMP activity measurement test, MMP-8 fluorimetric drug discovery kit). Details: reaction with enzyme 37° C. 60 minutes, substrate 20 minutes; FIG. 4.
T1 construct: purchased Enzo Life Sciences, Inc. BML-AK415-0001
T1 sequence (P22894 100-262 limits assumed): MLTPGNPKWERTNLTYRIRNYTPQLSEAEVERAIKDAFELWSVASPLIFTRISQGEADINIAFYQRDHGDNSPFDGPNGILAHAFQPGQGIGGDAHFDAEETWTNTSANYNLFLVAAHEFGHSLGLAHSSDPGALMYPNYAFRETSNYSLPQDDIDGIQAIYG
Assay type: biochemical
Description: (§1) Evaluation material solutions were prepared by individually adding each evaluation material at the respective concentrations shown in FIGS. 4 and 5 to a solvent in which 5% DMSO was added to the buffer included in each kit below. The evaluation materials used are EPC-K (L-ascorbic acid dl-α-tocopherol phosphoric acid diester potassium salt), VC (ascorbic acid), VEA (tocopherol acetate), and VEN (tocopherol nicotinate).
(§2) MMP-8 (neutrophil collagenase) activity was evaluated using an MMP-8 fluorimetric drug discovery kit (Enzo Life Sciences, Inc., BML-AK415-0001), and MMP-1 (fibroblast collagenase) activity was evaluated using an MMP-1 fluorimetric drug discovery kit (Enzo Life Sciences, Inc., BML-AK405-0001), in the following manner. […]
(§3) The fluorescent substrate included in each kit was diluted 10-fold using the buffer, and added in an amount of 10 μl to each solution after the reaction for 60 minutes. After the addition, a reaction was allowed to proceed at 37° C. for 20 minutes for MMP-8 or at 37° C. for 60 minutes for MMP-1, and the fluorescence intensity (excitation light: 328 nm; emission light: 420 nm) was measured. […] The concentration of each evaluation material in FIGS. 4 and 5 is the concentration at the time of preparing the evaluation material, and the final concentration (concentration at the time of measuring fluorescence intensity) is 1/5 of this concentration value.

| Compound | inhibition of MMP-8 activity |
| --- | --- |
| Cc1c(C)c2c(c(C)c1OP(=O)([O-])OC1=C(O)C(C(O)CO)OC1=O)CCC(C)(CCCC(C)CCCC(C)CCCC(C)C)O2.[K+] (racemic) [EPC-K, L-ascorbic acid dl-α-tocopherol phosphoric acid diester potassium salt] | inhibited MMP activity (MMP-8 and MMP-1) in a concentration-dependent manner |

These compounds were tested against T2, MMP-1 (fibroblast collagenase) (Homo sapiens, UniProt P03956) (assay: MMP activity measurement test, MMP-1 fluorimetric drug discovery kit). Details: reaction with enzyme 37° C. 60 minutes, substrate 60 minutes; FIG. 5.
T2 construct: purchased Enzo Life Sciences, Inc. BML-AK405-0001
T2 sequence (P03956 100-269 limits assumed): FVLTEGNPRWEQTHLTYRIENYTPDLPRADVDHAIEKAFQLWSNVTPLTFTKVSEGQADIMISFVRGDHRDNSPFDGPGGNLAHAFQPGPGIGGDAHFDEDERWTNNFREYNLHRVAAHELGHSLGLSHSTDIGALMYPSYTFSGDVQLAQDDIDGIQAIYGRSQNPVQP
Assay type: biochemical
Description: as §1, §2, §3

| Compound | inhibition of MMP-1 activity |
| --- | --- |
| Cc1c(C)c2c(c(C)c1OP(=O)([O-])OC1=C(O)C(C(O)CO)OC1=O)CCC(C)(CCCC(C)CCCC(C)CCCC(C)C)O2.[K+] (racemic) [EPC-K, L-ascorbic acid dl-α-tocopherol phosphoric acid diester potassium salt] | inhibited MMP activity (MMP-8 and MMP-1) in a concentration-dependent manner |

The compounds below were run on oral cavity-derived epithelial cell line (Ca9-22 cells) (assay: Cytotoxicity evaluation test (WST-1)). Details: surfactant final concentration 1%, 10 minutes at room temperature, FIGS. 6 and 7.
Assay type: cell-based
Description: An oral cavity-derived epithelial cell line (Ca9-22 cells) was cultured in a 96-well plate to confluency.
Evaluation solutions were prepared using PBS containing 0.5% DMSO as a solvent so that the final concentration of each surfactant was 1%. The surfactants used were polyoxyethylene (9) lauryl ether, polyoxyethylene (20) cetyl ether, polyoxyethylene (20) stearyl ether, polyoxyethylene (10) octylphenyl ether, polyoxyethylene glycol monolaurate, sorbeth-60 tetraoleate, diethyl sebacate, and polyoxyethylene (10) hydrogenated castor oil.
100 μl of each prepared evaluation solution was individually added to the cultured Ca9-22 cells and allowed to stand for 10 minutes at room temperature. After 10 minutes, washing was performed three times with 200 μl of PBS, a WST-1 reagent (Takara Bio Inc.) was added, and a reaction was allowed to proceed for 30 minutes. After the reaction, the absorbance at 450 nm and 600 nm was measured, and the absorbance at 600 nm was subtracted from the absorbance at 450 nm. The cell viability was calculated from the value calculated by the subtraction, based on the value obtained when only the solvent was added for the treatment taken as 100%. FIGS. 6 and 7 show the results.

| Compound | cytotoxicity in oral cavity-derived cells (cell viability) |
| --- | --- |
| CCOC(=O)CCCCCCCCC(=O)OCC [diethyl sebacate] | cytotoxicity was not caused |
| polyoxyethylene (10) octylphenyl ether | cytotoxicity was caused |
| polyoxyethylene (10) hydrogenated castor oil | cytotoxicity was not caused |
| polyoxyethylene (20) stearyl ether | cytotoxicity was caused |
| polyoxyethylene (9) lauryl ether | cytotoxicity was caused |
| polyoxyethylene glycol monolaurate | cytotoxicity was caused |
| sorbeth-60 tetraoleate | cytotoxicity was not caused |
| polyoxyethylene (20) cetyl ether | cytotoxicity was caused |
